Results taken from patent US20230364419A1, “USE OF E[…] ENHANCE THE DELIVERY OF PHARMACEUTICAL AGENTS AND OTHER […] THE SURFACE MUCOSA AND WALL OF THE URETER AND RENAL PELVIS, AND INTO THE RENAL PARENCHYMA” (priority 2022, published 2023).
Entries after “also recorded” stand apart in the source; their conditions may differ.

Tests used:
[1] = Methylene blue infusion into the renal pelvis with or without EMDA activation; type: in vivo
Method: In another example, cystoscopy was used to place a 0.035 in. guidewire into the ureter and pass it up into the renal pelvis. The cystoscope is removed and a 5 to 15 Fr pigtail catheter is advanced over the guidewire; the guidewire is removed. A retrograde pyelogram is performed and the fluid is then drained from the renal pelvis and measured in order to obtain the volume of the renal pelvis. The guidewire is replaced and the pigtail catheter is removed and the EMDA delivery catheter is advanced over the guidewire into the ureter. A fluoroscopic image is obtained to confirm the correct position of the catheter with the proximal tip inside the renal pelvis. The guidewire is removed and the catheter assumes its nonintubated “C” shape along its proximal end; the silver wire is passed into the EMDA catheter (alternatively a pre-assembled catheter will be deployed via a preplaced ureteral access sheath) following the “C” shape of the distal end of the catheter.
For renal pelvis EMDA, an electrical current of 4 mA (using a dedicated EMDA generator) is used in the C-shape catheter to achieve a current density of less than 0.5 mA/cm^2. This value is obtained based on prior work in the bladder with regard to the safety and efficacy of EMDA; the collecting system surface (8 cm^2) was multiplied by 0.5 mA/cm^2. A pulsed current is used during EMDA; however, direct current is also applicable.

[2] = Porcine ureteral EMDA proof-of-concept study: methylene blue infused through the ureteral catheter with or without current; type: in vivo, Yorkshire pigs; settings: for microscopic penetration of methylene blue into the ureteral wall (frozen section / histopathology): 20 min, infusion 5 ml/min
Source text: Cystoscopy is used to place a 0.035 in. guidewire into the ureter and up into the renal pelvis. The cystoscope is removed and the EMDA delivery catheter is advanced over the 0.035-inch super-stiff guidewire into the ureter up to the level of the ureteropelvic junction (i.e., not into the renal pelvis). A fluoroscopic image is obtained to confirm the correct position of the catheter in the ureter with the proximal tip just inside the renal pelvis. The 0.035 in. guidewire is removed and the silver wire is passed into the EMDA catheter. The circumference of the tip of silver wire (connected to positive electrode of EMDA generator) is larger than the exit hole in the distal tip of the EMDA catheter and thus its passage stops at the catheter’s tip and occludes the end-hole, thereby preventing any flow of instilled fluid from the tip of the catheter. A dispersing electrode (negative) is placed on the flank area. The EMDA is then activated and the fluid containing the intended medication is instilled at 5 ml/min via a drug infusion pump for 20 minutes.
An electrical current of 10 mA is used to achieve a current density of less than 0.5 mA/cm^2. This value was obtained based on prior work in other areas with regard to the safety and efficacy of EMDA. The ureteral surface was multiplied [20 cm (length)×(circumference≈1 cm) ≈20 cm^2] by 0.5 mA/cm^2. A pulsed or direct current can be used during EMDA.
As proof of concept, a porcine study was performed (IACUC approved protocol: 21-131). A charged molecule, methylene blue, was instilled which is suitable for EMDA because of its net positive charge, small molecular size, and strong blue color. Via the EMDA catheter, a pulsed electrical current of 10 mA was applied for 20 minutes during instillation of the methylene blue solution The pigs were then euthanized and both ureters were harvested. Visually, the difference in the color density in the experimental (EMDA ureter) and control ureter (without EMDA) was apparent.
Two Yorkshire pigs were placed under general anesthesia. Cystoscopy was used to place a 0.035 in. super-stiff™ guidewire into each ureter. A prefabricated ureteral catheter with equidistant (5 mm) fenestrations in three rows was advanced into each ureter. A silver wire was then passed into each ureteral catheter; the circumference of the silver wire was larger than the terminal opening in the catheter such that its passage stopped at the catheter’s tip, thereby preventing any flow of instilled fluid from the tip of the catheter. Methylene blue, a heterocyclic aromatic dye with a net positive charge, was infused through each catheter at a rate of 5 ml/min. In the experimental ureter, a positive pulsed electrical current of 10 mA was applied using a Physionizer® EDMA device. […]

Compound: CN(C)c1ccc2nc3ccc(=[N+](C)C)cc-3sc2c1 [methylene blue]
- macroscopic staining of the renal pelvis ([1]; with EMDA activation): Intense staining of the renal pelvis
- microscopic staining of urothelium and submucosa of the renal pelvis ([1]; with EMDA activation): Deep blue staining of urothelium and the submucosa of the renal pelvis
- tissue injury of the renal pelvis (H&E staining) ([1]; with EMDA activation): normal architecture with no signs of acute injury
- macroscopic staining of the renal pelvis ([1]; without EMDA activation): Faint staining of the renal pelvis
- microscopic staining of urothelium and submucosa of the renal pelvis ([1]; without EMDA activation): Blue staining of urothelium with less intensity and negligible methylene blue staining the submucosa of the renal pelvis
- tissue injury of the renal pelvis (H&E staining) ([1]; without EMDA activation): normal architecture with no evidence of injury
- microscopic penetration of methylene blue into the ureteral wall (frozen section / histopathology) ([2]; control ureter, without EMDA): only patchy staining of the urothelium; also recorded: minimal, patchy staining of the urothelial lining with negligible penetration of methylene blue beyond the urothelium; also recorded: patchy methylene blue staining was seen only on the urothelium with negligible deeper penetration
- microscopic penetration of methylene blue into the ureteral wall (frozen section / histopathology) ([2]; experimental ureter, with EMDA, pulsed current 10 mA): could be delivered beyond the urothelium and deeply into the wall of the ureter; also recorded: dense blue staining of the urothelium; also recorded: penetration of methylene blue throughout the wall of the EMDA treated ureter; also recorded: diffuse penetration of methylene blue into the urothelium, lamina propria, muscularis propria, and periureteral tissue
- macroscopic staining of the interior surface of the ureter ([2]; with EMDA): intense staining of the experimental ureter
- macroscopic staining of the interior surface of the ureter ([2]; without EMDA): minimal staining of the urothelial lining
